According to patent US20240246964A1 (Arbutus Biopharma Corporation, priority 2021, published 2024):

Legend:
[1] = target: PD-L1 His protein / PD-1 Fc protein (Homo sapiens (Human), UniProt Q9NZQ7); experiment: HTRF Assay (PD-1/PD-L1 interaction); assay type: binding; conditions: PD-L1 His 6 nM, PD-1 Fc 6 nM
human PD-L1 = human PD-L1 (Homo sapiens (Human), UniProt Q9NZQ7); experiment: T cell activation luciferase reporter cell culture system (T Cell Activation Assay); assay type: cell-based; conditions: luciferase reporter assay; PD-L1 aAPC/CHO-K1 cells with PD-1 effector Jurkat T cells
human PD-L1, sequence (Q9NZQ7 19-290): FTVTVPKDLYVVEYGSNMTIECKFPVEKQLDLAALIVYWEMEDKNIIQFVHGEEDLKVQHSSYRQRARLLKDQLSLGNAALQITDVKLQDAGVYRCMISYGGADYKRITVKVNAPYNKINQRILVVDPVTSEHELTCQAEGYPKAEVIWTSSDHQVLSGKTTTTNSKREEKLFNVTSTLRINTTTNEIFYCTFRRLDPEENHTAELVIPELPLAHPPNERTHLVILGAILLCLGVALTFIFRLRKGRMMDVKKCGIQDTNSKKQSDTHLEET

PD-L1 His protein / PD-1 Fc protein, sequence (Q9NZQ7 19-238): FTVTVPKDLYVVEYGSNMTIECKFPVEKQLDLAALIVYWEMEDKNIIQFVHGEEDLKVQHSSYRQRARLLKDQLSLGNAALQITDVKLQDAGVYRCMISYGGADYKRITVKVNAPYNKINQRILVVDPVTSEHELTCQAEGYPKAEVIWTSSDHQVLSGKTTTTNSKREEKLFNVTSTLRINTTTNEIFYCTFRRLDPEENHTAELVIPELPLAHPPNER

| Structure (SMILES) | IC50 [1] [nM] | EC50 (human PD-L1) [nM] |
| --- | --- | --- |
| COc1cc(-c2nccc(-c3cccc(-c4ccc5c(CN(C)C6CCN(C(C)=O)CC6)cn(C)c5n4)c3Cl)c2Cl)ccc1CN1CC2(C1)CN(C(C)=O)C2 [Compound 601, 1-(4-(((6-(3-(2-(4-((6-Acetyl-2,6-diazaspiro[3.3]heptan-2-yl)methyl)-3-methoxyphenyl)-3-chloropyridin-4-yl)-2-chlorophenyl)-1-methyl-1H-pyrrolo[2,3-b]pyridin-3-yl)methyl)(methyl)amino)piperidin-1-yl)ethan-1-one] | 0.23 | 110 |
| COc1cc(-c2nccc(-c3cccc(-c4ccc(CNCCN5CCCC5=O)c(OC)n4)c3Cl)c2Cl)ccc1CNCCN1CCCC1=O [Example 303, 1-(2-(((6-(2-Chloro-3-(3-chloro-2-(3-methoxy-4-(((2-(2-oxopyrrolidin-1-yl)ethyl)amino)methyl)phenyl)pyridin-4-yl)phenyl)-2-methoxypyridin-3-yl)methyl)amino)ethyl)pyrrolidin-2-one] | 2.83 | 30.8 |
| COc1cc(-c2nccc(-c3cccc(-c4ccc5c(CNC[C@@H]6CCC(=O)N6)cn(C)c5n4)c3Cl)c2Cl)ccc1CNC[C@@H]1CCC(=O)N1 [Compound 17, (S)-5-((((6-(2-chloro-3-(3-chloro-2-(3-methoxy-4-(((((S)-5-oxopyrrolidin-2-yl)methyl)amino)methyl)phenyl)pyridin-4-yl)phenyl)-1-methyl-1H-pyrrolo[2,3-b]pyridin-3-yl)methyl)amino)methyl)pyrrolidin-2-one] | 2.4 | 29.2 |
| CNCc1ccc(-c2cccc(-c3ccnc(-c4ccc(CNC(C)C)c(OC)c4)c3Cl)c2Cl)nc1OC [Compound 211, N-(4-(3-chloro-4-(2-chloro-3-(6-methoxy-5-((methylamino)methyl)pyridin-2-yl)phenyl)pyridin-2-yl)-2-methoxybenzyl)propan-2-amine] | 4.2 | 56.2 |
| COc1cc(-c2nccc(-c3cccc(-c4ccc(CNC[C@@H]5CCC(=O)N5)c(OC)n4)c3Cl)c2Cl)ccc1C1=NCCN1 [Compound 179, (S)-5-((((6-(2-chloro-3-(3-chloro-2-(4-(4,5-dihydro-1H-imidazol-2-yl)-3-methoxyphenyl)pyridine-4-yl)phenyl)-2-methoxypyridin-3-yl)methyl)amino)methyl)pyridine1334ne-2-one] | 2.45 | 30.8 |
| COc1cc(CNCCO)cc(-c2nccc(-c3cccc(-c4ccc(CNCCO)c(OC)n4)c3Cl)c2Cl)c1 [Compound 156, 2-(((6-(2-chloro-3-(3-chloro-2-(3-(((2-hydroxyethyl)amino)methyl)-5-methoxyphenyl)pyridin-4-yl)phenyl)-2-methoxypyridin-3-yl)methyl)amino)ethan-1-ol] | 1.18 | ≥ 10000 |
| COc1nc(-c2cccc(-c3ccnc(-c4ccc5c(c4)CN(CCNC[C@@H]4CCC(=O)N4)C5=O)c3Cl)c2Cl)ccc1CNC1CCN(C(C)=O)CC1 [Compound 143, (S)-5-(4-(3-(5-(((1-acetylpiperidin-4-yl)amino)methyl)-6-methoxypyridin-2-yl)-2-chlorophenyl)-3-chloropyridin-2-yl)-2-(2-(((5-oxopyrrolidin-2-yl)methyl)amino)ethyl)isoindolin-1-one] | 3.94 | 5440 |
| COc1nc(-c2cccc(-c3nccc(-c4ccc(CN5CC6(CNC(=O)C6)C5)c(OC)n4)c3Cl)c2Cl)ccc1CN1CC2(CNC(=O)C2)C1 [Compound 573, 2-((3′-Chloro-2′-(2-chloro-3-(6-methoxy-5-((7-oxo-2,6-diazaspiro[3.4]octan-2-yl)methyl)pyridin-2-yl)phenyl)-6-methoxy-[2,4′-bipyridin]-5-yl)methyl)-2,6-diazaspiro[3.4]octan-7-one] | 0.17 | 14.4 |
| COc1cc(-c2ncnc(-c3cccc(NC(=O)c4cn(C)c(=O)n(C)c4=O)c3Cl)c2Cl)ccc1CNC[C@@H]1CCC(=O)N1 [Compound 708, (S)—N-(2-Chloro-3-(5-chloro-6-(3-methoxy-4-((((5-oxopyrrolidin-2-yl)methyl)amino)methyl)phenyl)pyrimidin-4-yl)phenyl)-1,3-dimethyl-2,4-dioxo-1,2,3,4-tetrahydropyrimidine-5-carboxamide] | 0.29 | 1320 |
| COc1cc(-c2nccc(-c3cccc(-c4ccc5c(CNC6CCN(C(C)=O)CC6)cn(C)c5n4)c3Cl)c2Cl)ccc1CN1CC2(CNC(=O)C2)C1 [Compound 579, 2-(4-(4-(3-(3-(((1-Acetylpiperidin-4-yl)amino)methyl)-1-methyl-1H-pyrrolo[2,3-b]pyridin-6-yl)-2-chlorophenyl)-3-chloropyridin-2-yl)-2-methoxybenzyl)-2,6-diazaspiro[3.4]octan-7-one] | 0.3 | 101 |
| COCCNCc1cn(C)c2cc(-c3nccc(-c4cccc(-c5ccc(CNC[C@@H]6CCC(=O)N6)c(OC)n5)c4Cl)c3Cl)ccc12 [Compound 30, (S)-5-((((6-(2-chloro-3-(3-chloro-2-(3-(((2-methoxyethyl)amino)methyl)-1-methyl-1H-indol-6-yl)pyridin-4-yl)phenyl)-2-methoxypyridin-3-yl)methyl)amino)methyl)pyrrolidin-2-one] | 15.4 | 100 |
| COc1cc(-c2nccc(-c3cccc(-c4ccc(CN[C@H]5C[C@](C)(O)C5)c(OC)n4)c3Cl)c2Cl)cc2c1CN(C[C@H](C)O)CC2 [Compound 215, (1r,3r)-3-(((6-(2-chloro-3-(3-chloro-2-(2-((S)-2-hydroxypropyl)-8-methoxy-1,2,3,4-tetrahydroisoquinolin-6-yl)pyridin-4-yl)phenyl)-2-methoxypyridin-3-yl)methyl)amino)-1-methylcyclobutan-1-ol] | 5.58 | 25.5 |
| COc1nc(-c2cccc(-c3ccnc(-c4ccc5nc([C@H]6N[C@@H]7CC[C@H]6C7)[nH]c5c4)c3Cl)c2Cl)ccc1CNC[C@@H]1CCC(=O)N1 [Compound 152, (S)-5-((((6-(3-(2-(2-((1R,3S,4S)-2-azabicyclo[2.2.1]heptan-3-yl)-1H-benzo[d]imidazol-6-yl)-3-chloropyridin-4-yl)-2-chlorophenyl)-2-methoxypyridin-3-yl)methyl)amino)methyl)pyrrolidin-2-one] | 2.57 | ≥ 10000 |
| CNCc1ccc(-c2nccc(-c3cccc(-c4ccc(CNC)c(OC)n4)c3Cl)c2Cl)cc1OC [Compound 136, 1-(6-(2-chloro-3-(3-chloro-2-(3-methoxy-4-((methylamino)methyl)phenyl)pyridin-4-yl)phenyl)-2methoxypyridin-3-yl)-N-methylmethanamine] | 0.708 | 16.3 |
| COc1cc(-c2nccc(-c3cccc(-c4ccc(CNC5CCS(=O)(=O)CC5)c(OC)n4)c3Cl)c2Cl)ccc1CNC1CCS(=O)(=O)CC1 [Example 299, 4-(((6-(2-Chloro-3-(3-chloro-2-(4-(((1,1-dioxidotetrahydro-2H-thiopyran-4-yl)amino)methyl)-3-methoxyphenyl)pyridin-4-yl)phenyl)-2-methoxypyridin-3-yl)methyl)amino)tetrahydro-2H-thiopyran 1,1-dioxide] | 0.79 | 22.6 |
| COc1cc(-c2nccc(-c3cccc(-c4ccc5c(CNC6CCOCC6)cn(C)c5n4)c3Cl)c2Cl)ccc1CNC1CCN(C(C)=O)CC1 [Example 556, 1-(4-((4-(3-Chloro-4-(2-chloro-3-(1-methyl-3-(((tetrahydro-2H-pyran-4-yl)amino)methyl)-1H-pyrrolo[2,3-b]pyridin-6-yl)phenyl)pyridin-2-yl)-2-methoxybenzyl)amino)piperidin-1-yl)ethan-1-one] | 1.22 | 222 |
| COc1nc(-c2cccc(-c3ccnc(-c4cc(OC)c5nc(CN6CC7(C6)CN(C(C)=O)C7)nn5c4)c3Cl)c2Cl)ccc1CNC(C)C [Compound 767, 1-(6-((6-(3-Chloro-4-(2-chloro-3-(5-((isopropylamino)methyl)-6-methoxypyridin-2-yl)phenyl)pyridin-2-yl)-8-methoxy-[1,2,4]triazolo[1,5-a]pyridin-2-yl)methyl)-2,6-diazaspiro[3.3]heptan-2-yl)ethan-1-one] | 0.24 | 92.1 |
| COc1nc(-c2ccnc(-c3cccc4c3CCC[C@@H]4Nc3nc(OC)c(CN4CC5(CNC(=O)C5)C4)cc3C(F)(F)F)c2Cl)ccc1CNC[C@@H]1CCC(=O)N1 [Example 720, 2-((6-(((S)-5-(3′-Chloro-6-methoxy-5-(((((S)-5-oxopyrrolidin-2-yl)methyl)amino)methyl)-[2,4′-bipyridin]-2′-yl)-1,2,3,4-tetrahydronaphthalen-1-yl)amino)-2-methoxy-5-(trifluoromethyl)pyridin-3-yl)methyl)-2,6-diazaspiro[3.4]octan-7-one] | 34.4 | ≥ 10000 |
| COc1cc(-c2nccc(-c3cccc4c3CC[C@@H]4Oc3nc(OC)c(CNC[C@@H]4CCC(=O)N4)cc3C(F)(F)F)c2Cl)ccc1CNC[C@@H]1CCC(=O)N1 [Example 269, (S)-5-((((6-(((S)-4-(3-chloro-2-(3-methoxy-4-(((((S)-5-oxopyrrolidin-2-yl)methyl)amino)methyl)phenyl)pyridin-4-yl)-2,3-dihydro-1H-inden-1-yl)oxy)-2-methoxy-5-(trifluoromethyl)pyridin-3-yl)methyl)amino)methyl)pyrrolidin-2-one] | 12.5 | 5.54 |
| CNCc1ccc(-c2cccc(-c3ccnc(-c4ccc(CNC[C@@H](O)CC(=O)O)c(OC)c4)c3Cl)c2Cl)nc1OC [Compound 220, (S)-4-((4-(3-chloro-4-(2-chloro-3-(6-methoxy-5-((methylamino)methyl)pyridin-2-yl)phenyl)pyridin-2-yl)-2-methoxybenzyl)amino)-3-hydroxybutanoic acid] | 2.18 | 76.1 |
| CNCc1ccc(-c2cccc(-c3ccnc(-c4cc(CNC[C@@H](O)CC(=O)O)cc(OC)c4)c3Cl)c2Cl)nc1OC [Compound 169, (S)-4-((3-(3-chloro-4-(2-chloro-3-(6-methoxy-5-((methylamino)methyl)pyridine-2-yl)phenyl)pyridine-2-yl)-5-methoxybenzyl)amino)-3-hydroxybutanoic acid] | 1.85 | 632 |
